Source: patent US7714006B1, “Methods of modifying the bioavailability of metaxalone” (King Pharmaceuticals Research & Development, Inc., priority 2001, dated 2010)
Read-outs that look alike come from different tables or passages of the source.

Tests used:
[1] = Effects of age and gender on fasted PK parameters, study 106 (2×400 mg without food); format: in vivo, human
Protocol: In addition, the robustness of the results are assessed by applying similar analysis approaches to the data from two other studies: • Study AN151607-101 (hereafter referred to as the 101 study): a two-period, randomized crossover trial with treatment conditions 1×400 mg with food and 1×400 mg without food; • Study AN151607-106 (hereafter referred to as the 106 study): a single dose trial with treatment condition 2×400 mg without food.
(§1) Study 106 was a single dose trial conducted in 48 healthy volunteers. The mean age was 24.7 years, with a range from 18 to 50 years. The single treatment condition in this study was 2×400 mg without food. Blood samples for PK analyses were obtained at the same time points as in the 103 and 105 studies.
First, Pearson and Spearman correlation coefficients between age and each of the three PK parameters were computed. The correlation coefficients and two-sided p-values from the test of the null hypothesis of no association are shown below in TABLE VIIIa:
Linear regression models using the natural logarithm of each of the three PK parameters as the dependent variable and age as the independent variable were fitted in order to estimate the magnitude of the associations with age.
as §1, with “volunteers (24 males, 24 females).” for “volunteers.”
The same regression modeling strategy as was described in Sections 3.2 and 3.3 was also used. In the initial regression models with a gender effect and separate age effects for males and females, the parameter estimates for all three variables were negative for males and positive for females. In addition, the age effect in females was statistically significant for ln(AUC(last)) and ln(AUC(inf)). However, the tests of equality between the age effects for males and females (i.e., the age-by-gender interaction) were not statistically significant for any of the three variables; the p-values ranged from 0.08 to 0.11.

[2] = Food effect study: single oral Skelaxin 400 mg tablet with vs without food, healthy subjects, plasma pharmacokinetics; format: in vivo, human; conditions: for AUC(0-inf) / AUC(0-t) / Cmax / half-life / Tmax: both sexes, human, plasma, oral, 400 mg; for half-life: read-out: T1/2, least squares mean (converted); for Tmax: read-out: Tmax, least squares mean
Protocol: The effect of food on metaxalone absorption was identified in a study designed to compare the bioavailability of 400 mg of metaxalone in the formulation the drug product Skelaxin® administered to healthy volunteers with and without food.
An objective was to evaluate the bioavailability of metaxalone when administered to subjects with and without food. A single center, single dose, open-label, two-period, randomized, crossover trial in healthy subjects was conducted over a period of approximately 32 days.
Treatment A: metaxalone tablet (400 mg) administered with food
Treatment B: metaxalone tablet (400 mg) administered without food
In fed treatment condition A, study drug was taken 15 minutes after the test meal. The test meal was consumed over a 15 minute time period. There was a 6-day washout period between study drug administrations. Seventeen blood samples were collected, starting with baseline (0 hour) and at the following time points: 0.5, 1, 1.5, 2, 2.5, 3, 3.5, 4, 4.5, 5, 6, 8, 12, 16; 24, and 36 hours.
A total of 44 subjects (31 males/13 females) were enrolled and dosed. Only the plasma of subjects who completed the study were assayed and used for the pharmacokinetic analysis.
A single center, single dose, open label, two-period crossover trial was devised for study in healthy subjects. Each administration was a single oral dose of one Skelaxin® 400 mg tablet with or without food. The study drug was administered as follows:
Treatment A: One (1) 400 mg tablet of metaxalone with 240 mL of room temperature water with food: Breakfast was given to the subjects 30 Minutes prior to dosing and eaten within a 15 minute period. The dose of study drug was administered to the subjects 15 minutes after the breakfast was finished.
Treatment B: One (1) 400 mg tablet of metaxalone with 240 mL of room temperature water without food. The study drug was administered with 240 mL room temperature water. A mouth check was performed to verify that the subjects swallowed the dose. Subjects were sequentially dosed at 1-minute intervals. The actual time of dosing was recorded on the Master Flow Sheet (refer to the Appendix 16.3.2 Clinical Study Data). Drug administration (1×400 mg tablet) was assisted with 240 mL of room temperature water consumed under direct observation. Immediately after administration of product, the subject's oral cavity was checked to confirm complete medication and fluid consumption. Dosing was completed as scheduled in 42 of 44 subjects.
The drug substance, metaxalone, was dosed in tablet form. Content 400 mg; Route: Oral, Batch/Lot No.: SKLWW263F; Expiration Date: FEB03; Manufacturer: West-Ward Pharmaceutical Corp.
All pharmacokinetic parameters were analyzed by noncompartmental methods. The following PK parameters were calculated for the two PK profiles and are defined as follows: […]
Tmax: Time to maximum concentration;
Cmax: Observed maximum concentration;
kel: Slope of terminal linear portion of concentration/time curve;
T1/2: Half-life of metaxalone calculated as: 0.693/Kel;
AUC(last): Area under the curve to last quantifiable concentration as measured by the trapezoidal rule;
AUC(inf): The AUC value extrapolated to infinity calculated as:
AUC(inf)=AUC(last)+C(t)last/Kel where C(t)last is the last measurable concentration.
All statistical analyses were performed using SAS® software version 6.08 or higher. The pharmacokinetic parameters between the two treatments were compared using an appropriate ANOVA model (analysis of variance) that includes terms for treatment, sequence, and period effect. Ninety percent confidence intervals were computed for the Cmax and AUC values of the fed treatment with fasting as the reference treatment. During the study there were no protocol deviations to confound the pharmacokinetic and bioavailability analyses. Study results were not corrected for drug potency.
Differences were declared to be significant at the 5% level. […]

[3] = Treatment A: 400 mg tablet with food
[4] = Treatment B: 400 mg tablet without food
[5] = fed vs fasted, ln-transformed data

Pearson correlation, age vs ln(AUC(inf)) ([1]; females n=24): 0.416 | Pearson correlation, age vs ln(AUC(last)) ([1]; females n=24): 0.431 | Pearson correlation, age vs ln(Cmax) ([1]; females n=24): 0.336 | Spearman correlation, age vs ln(AUC(inf)) ([1]; females n=24): 0.368 | Spearman correlation, age vs ln(AUC(last)) ([1]; females n=24): 0.428 | Spearman correlation, age vs ln(Cmax) ([1]; females n=24): 0.279 | Pearson correlation, age vs ln(AUC(inf)) ([1]; males n=24): −0.184 | Pearson correlation, age vs ln(AUC(last)) ([1]; males n=24): −0.178 | Pearson correlation, age vs ln(Cmax) ([1]; males n=24): −0.202 | Spearman correlation, age vs ln(AUC(inf)) ([1]; males n=24): −0.368 | Spearman correlation, age vs ln(AUC(last)) ([1]; males n=24): −0.365 | Spearman correlation, age vs ln(Cmax) ([1]; males n=24): −0.316 | Pearson correlation, age vs ln(AUC(inf)) ([1]; n=48): 0.348 | Pearson correlation, age vs ln(AUC(last)) ([1]; n=48): 0.349 | Pearson correlation, age vs ln(Cmax) ([1]; n=48): 0.260 | Spearman correlation, age vs ln(AUC(inf)) ([1]; n=48): 0.173 | Spearman correlation, age vs ln(AUC(last)) ([1]; n=48): 0.189 | Spearman correlation, age vs ln(Cmax) ([1]; n=48): 0.125 | Bioavailability when administered with food ([2]; 400 mg tablets, single dose, with food vs without): increased | AUC(0-inf) ([2]; Treatment A: 400 mg tablet with food, read-out: AUC(inf), least squares mean): 8540 ng·h/mL | AUC(0-t) ([2]; Treatment A: 400 mg tablet with food, read-out: AUC(last), least squares mean): 8440 ng·h/mL | Cmax ([2]; Treatment A: 400 mg tablet with food, read-out: Cmax, least squares mean): 1770 ng/mL | AUC(0-inf) ([2]; Treatment A: 400 mg tablet with food, read-out: Ln-Transformed AUC(inf), geometric mean): 7630 ng·h/mL | AUC(0-t) ([2]; Treatment A: 400 mg tablet with food, read-out: Ln-Transformed AUC(last), geometric mean): 7520 ng·h/mL | Cmax ([2]; Treatment A: 400 mg tablet with food, read-out: Ln-Transformed Cmax, geometric mean): 1540 ng/mL | half-life [2, 3]: 2.37 h | Tmax [2, 3]: 4.29 h | AUC(0-inf) ([2]; Treatment B: 400 mg tablet without food, read-out: AUC(inf), least squares mean): 7480 ng·h/mL | AUC(0-t) ([2]; Treatment B: 400 mg tablet without food, read-out: AUC(last), least squares mean): 6960 ng·h/mL | Cmax ([2]; Treatment B: 400 mg tablet without food, read-out: Cmax, least squares mean): 983 ng/mL | AUC(0-inf) ([2]; Treatment B: 400 mg tablet without food, read-out: Ln-Transformed AUC(inf), geometric mean): 6620 ng·h/mL | AUC(0-t) ([2]; Treatment B: 400 mg tablet without food, read-out: Ln-Transformed AUC(last), geometric mean): 6090 ng·h/mL | Cmax ([2]; Treatment B: 400 mg tablet without food, read-out: Ln-Transformed Cmax, geometric mean): 865 ng/mL | half-life [2, 4]: 9.04 h | Tmax [2, 4]: 3.32 h | % Ratio (A/B) AUC(inf) [2, 5]: 115.35% | % Ratio (A/B) AUC(last) [2, 5]: 123.48% | % Ratio (A/B) Cmax [2, 5]: 177.53%
SMILES: Cc1cc(C)cc(OCC2CNC(=O)O2)c1 (centres unmarked) [metaxalone, 5-[(3,5-dimethylphenoxy)methyl]-2 oxazolidinone]
